Source: patent US20030228566A1, “Method of and apparatus for screening for drug candidates” (BioTechPlex Corporation, priority 2002, published 2003)

Tested on: normal human bronchial epithelial cells (NHBE)
Experiment: Cumulative dose kinetic responses of intracellular Ca++, Cl- and cell membrane potential (simultaneous three-fluorophore photon counting: Fluo-3, di-MEQ, RH421)
Type: cell-based
Conditions: for intracellular Ca++ response / intracellular Cl- response / membrane potential response: cumulative dosing
Description: Normal human bronchial/tracheal epithelial cells (NHBE, Clonetics) were cultured in T-25 cm^2 flasks at 37° C., 5% CO2 using Bronchial/Tracheal Epithelial Cell Growth Medium containing Retinoic Acid (BEGM, w/RA, Clonetics). When the NHBE cells in the T-25 flasks reached 60%-80% confluency, the cells were passaged using a seeding density of 3500 cells/cm^2. A portion of the cells was passaged in T-25 flasks again while the remaining cells were seeded on UV-exposed Vitrogen (pH balanced 1:1 BEGM to Vitrogen) coated 4-well cover glass chambers (LabTek II). NHBE cells normally attached to the collagen-coated cover glass chamber within 24 hrs. Prior to these cells reaching 60% confluency, they were used for all the experiments described below. Cells used in all the experiments were either 2nd or 3rd passage cells maintained in Bronchial/Tracheal Epithelial Cell Growth Medium with Retinoic Acid (BEGM, w/RA, Clonetics).
The following procedures for loading the cells with fluorophore were employed. Balanced Hank's (BH) solution without phenol red was used as the medium for all the fluorophore preparations and cell washings unless stated otherwise. Fluo-3 (a Ca^++ indicator), di-MEQ (a Cl^− indicator) and RH421 (a cell membrane potential indicator) were loaded into cells sequentially at room temperature. Cells were first incubated with 8 μM Fluo-3 solution for 60 minutes, followed by incubating with 50 μM di-MEQ for 5 minutes and then finally with 10 μM RH421 for 5 minutes. Extraneous dyes were washed with BH solution between each fluorophore loading procedure. The cells were allowed to stabilize in BEGM for a minimum of 15 minutes at room temperature prior to the beginning of each experiment.
Experiments were performed at room temperature. All tested agents were prepared in Balanced Hank's Solution. One of the wells of the cover glass chamber was placed on the stage of the inverted microscope and the cells loaded with the fluorophores were visually focused with the violet, green and orange emitted light from the cells approximately in the same focal plane. At a sampling frequency of 100 Hz, cells with the following photon counts were chosen for the study: 20 to 50 counts per channel (cpc) for Ca^++ fluorescence, 70 to 200 cpc for Cl^− fluorescence, and 20 to 50 cpc for cell membrane potential fluorescence. After establishing a 2 minute baseline, increasing doses of the agent of interest were added topically to the wells 2 minutes apart. At the end of each experiment, a toxic dose of the agent of interest was added to the sample to either shrink or swell the cells beyond their normal cell volume regulatory range. This caused the fluorescence signals of each of these fluorophores to reach either maximum or minimum values. […] Background fluorescence was recorded using a cell free area of the same well. If the signal to background ratio was not higher than a factor of 10, the experiments were also discarded.

[1] = 25 μM to 500 μM cumulative dosing, general statement
[2] = Glibenclamide concentrations below 500 μM

Structure (SMILES)	intracellular Ca++ response (concentration 0.1 mM)	intracellular Cl- response (concentration 0.1 mM)	membrane potential response (concentration 0.1 mM)	intracellular Ca++ response (concentration 1 mM)	intracellular Cl- response (concentration 1 mM)	membrane potential response (concentration 1 mM)	[Cl-]i (MEQ fluorescence inversely proportional to [Cl-]i), overall effect [1]	cell membrane polarization, overall effect [1]	intracellular Ca++ response [2]	intracellular Cl- response [2]	membrane potential response [2]	intracellular Ca++ response (concentration 500 μM)	intracellular Cl- response (concentration 500 μM)	membrane potential response (concentration 500 μM)
O=c1ccn([C@@H]2O[C@H](COP(=O)(O)OP(=O)(O)OP(=O)(O)O)[C@@H](O)[C@H]2O)c(=O)[nH]1 [UTP, uridine triphosphate]	rapid increase	essentially no changes	essentially no changes	rapid increase	essentially no changes	essentially no changes								
COc1ccc(Cl)cc1C(=O)NCCc1ccc(S(=O)(=O)NC(=O)NC2CCCCC2)cc1 [Glibenclamide]							increased	hyperpolarized	little affected	declines as Glibenclamide concentration increases	little affected	rapid increase	simultaneous drop	simultaneous increase
